Results: ChEMBL document CHEMBL4219112, “Rational drug design and synthesis of new α-Santonin derivatives as potential COX-2 inhibitors” (Bioorg Med Chem Lett, 2018)
Values belong to the compound of their own block, whether it stands above or below them. Calls of active or inactive are those of the source. The calls are words filed in the database; no cut-off is given here.

Columns and labels:
[1] = tested on: RIF-1; test: Inhibition of COX2 expression levels in PH-PDT-treated mouse RIF1 cells at 500 uM after 24 hrs by Western blot analysis; format: functional, cell-based
[2] = biological target: T1, Prostaglandin G/H synthase 2 (Mus musculus) (UniProt Q05769); test: Inhibition of COX-2 in PH-PDT-treated mouse RIF1 cells assessed as suppression of PGE2 production at 250 uM after 24 hrs by spectrophotometric analysis
T1 sequence (whole entry): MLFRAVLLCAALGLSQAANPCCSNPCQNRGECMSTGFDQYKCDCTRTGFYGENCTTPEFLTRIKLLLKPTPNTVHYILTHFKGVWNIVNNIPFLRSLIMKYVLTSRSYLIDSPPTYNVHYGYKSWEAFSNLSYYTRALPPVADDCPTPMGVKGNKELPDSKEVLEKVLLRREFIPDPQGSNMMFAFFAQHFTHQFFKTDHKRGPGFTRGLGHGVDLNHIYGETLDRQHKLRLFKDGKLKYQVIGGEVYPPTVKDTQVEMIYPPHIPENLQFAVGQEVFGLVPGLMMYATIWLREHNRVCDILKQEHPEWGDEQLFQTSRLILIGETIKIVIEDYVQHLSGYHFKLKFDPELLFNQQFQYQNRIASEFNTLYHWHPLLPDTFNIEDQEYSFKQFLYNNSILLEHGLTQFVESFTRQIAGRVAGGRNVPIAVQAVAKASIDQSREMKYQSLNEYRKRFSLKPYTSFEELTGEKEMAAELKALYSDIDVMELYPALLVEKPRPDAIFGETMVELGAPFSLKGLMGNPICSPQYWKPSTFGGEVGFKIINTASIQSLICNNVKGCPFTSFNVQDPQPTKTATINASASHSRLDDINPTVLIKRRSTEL

[3] = tested on: RIF-1; test: Inhibition of COX2 expression levels in PH-PDT-treated mouse RIF1 cells at 250 uM after 24 hrs by Western blot analysis; format: functional, cell-based
[4] = tested on: RIF-1; test: Cytotoxicity against mouse RIF1 cells at 250 to 750 uM after 24 hrs; format: cell-based; details: rif-1, 24 h
[5] = tested on: RIF-1; test: Cytotoxicity against mouse RIF1 cells at 50 to 800 uM after 24 hrs; format: cell-based; details: rif-1, 24 h
[6] = tested on: RIF-1; test: Inhibition of COX2 expression levels in PH-PDT-treated mouse RIF1 cells at 400 uM after 24 hrs by Western blot analysis; format: functional, cell-based
[7] = biological target: T1, Prostaglandin G/H synthase 2 (Mus musculus); test: Inhibition of COX-2 in PH-PDT-treated mouse RIF1 cells assessed as suppression of PGE2 production at 500 uM after 24 hrs by spectrophotometric analysis
[8] = biological target: T1, Prostaglandin G/H synthase 2 (Mus musculus); test: Inhibition of COX-2 in PH-PDT-treated mouse RIF1 cells assessed as suppression of PGE2 production at 750 uM after 24 hrs by spectrophotometric analysis
[9] = tested on: RIF-1; test: Inhibition of COX2 expression levels in PH-PDT-treated mouse RIF1 cells at 750 uM after 24 hrs by Western blot analysis; format: functional, cell-based
[10] = tested on: RIF-1; test: Cytotoxicity against mouse RIF1 cells at 62.5 to 750 uM after 24 hrs; format: cell-based; details: rif-1, 24 h
[11] = tested on: RIF-1; test: Inhibition of COX2 expression levels in PH-PDT-treated mouse RIF1 cells at 62.5 uM after 24 hrs by Western blot analysis; format: functional, cell-based
[12] = biological target: T1, Prostaglandin G/H synthase 2 (Mus musculus); test: Inhibition of COX-2 in PH-PDT-treated mouse RIF1 cells assessed as suppression of PGE2 production at 200 uM after 24 hrs by spectrophotometric analysis
[13] = tested on: RIF-1; test: Cytotoxicity against mouse RIF1 cells at 100 to 800 uM after 24 hrs; format: cell-based; details: rif-1, 24 h
[14] = biological target: T1, Prostaglandin G/H synthase 2 (Mus musculus); test: Inhibition of COX-2 in PH-PDT-treated mouse RIF1 cells assessed as suppression of PGE2 production at 800 uM after 24 hrs by spectrophotometric analysis
[15] = tested on: RIF-1; test: Inhibition of COX2 expression levels in PH-PDT-treated mouse RIF1 cells at 800 uM after 24 hrs by Western blot analysis; format: functional, cell-based
[16] = biological target: T1, Prostaglandin G/H synthase 2 (Mus musculus); test: Inhibition of COX-2 in PH-PDT-treated mouse RIF1 cells assessed as suppression of PGE2 production at 400 uM after 24 hrs by spectrophotometric analysis
[17] = tested on: RIF-1; test: Cytotoxicity against mouse RIF1 cells at 500 to 1000 uM after 24 hrs; format: cell-based; details: rif-1, 24 h

SMILES: Cc1cc(OCc2ccc(C(F)(F)F)cc2)c(C)c2c1CC[C@H]1[C@H](C)C(=O)O[C@@H]21
Activity [5]: Non-Toxic
inhibition [6]: Active

SMILES: Cc1cc(OCc2ccccc2)c(C)c2c1CC[C@H]1[C@H](C)C(=O)O[C@@H]21
inhibition [7]: Active
inhibition [8]: Active
inhibition [9]: Active
Activity [10]: Toxic
inhibition [1]: Active
inhibition [11]: Active

SMILES: CC1=C2[C@@H]3OC(=O)[C@@H](C)[C@@H]3CC[C@@]2(C)C=CC1=O
inhibition [7]: Active
Activity [17]: Non-Toxic
inhibition [1]: Active

Further lines, with some results ahead:

inhibition [2]: Active
SMILES: Cc1cc(O)c(C)c2c1CC[C@H]1[C@H](C)C(=O)O[C@@H]21
inhibition [1]: Active
inhibition [3]: inactive
Activity [4]: Non-Toxic

inhibition [12]: Active
inhibition [14]: inactive
inhibition [16]: Active
SMILES: CC(=O)Oc1cc(C)c2c(c1C)[C@@H]1OC(=O)[C@@H](C)[C@@H]1CC2
inhibition [6]: inactive
Activity [13]: Non-Toxic
inhibition [15]: Active
